The target of this assay is T1, Neutrophil elastase (Homo sapiens) (UniProt P08246).
T1 sequence (whole entry): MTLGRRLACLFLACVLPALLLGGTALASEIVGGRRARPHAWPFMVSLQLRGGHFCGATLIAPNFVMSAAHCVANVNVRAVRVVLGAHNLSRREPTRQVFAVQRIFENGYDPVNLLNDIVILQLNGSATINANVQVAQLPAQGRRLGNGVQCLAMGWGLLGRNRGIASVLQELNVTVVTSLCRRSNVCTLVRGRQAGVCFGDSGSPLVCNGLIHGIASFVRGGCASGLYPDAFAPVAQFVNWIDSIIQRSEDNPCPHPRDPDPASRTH
In words: Inhibition of NE in cystic fibrosis patient sputum supernatant at 5 to 10 nM using ABZ-APEEIMRRQ-EDDnp as substrate after 20 mins by spectrophotometric method.

Active and inactive are the calls of the source. The calls are words filed in the database; no cut-off is given here.

Take `CCCC(NC(=O)[C@H](CC(=O)O)NC(=O)[C@H](Cc1ccc(O)cc1)NC(=O)[C@@H](NC(=O)CCCC[C@@H]1SC[C@@H]2NC(=O)N[C@@H]21)C(C)C)P(=O)(Oc1ccc(Cl)cc1)Oc1ccc(Cl)cc1` (stereo partly specified): the inhibition result is “inactive”.

These data come from ChEMBL document CHEMBL4043286, “Exploiting the S4-S5 Specificity of Human Neutrophil Proteinase 3 to Improve the Potency of Peptidyl Di(chlorophenyl)-phosphonate Ester Inhibitors: A Kinetic and Molecular Modeling Analysis” (J Med Chem, 2018).
